Source: patent publication US20240408167A1, “COMPOSITION FOR TREATING OCULAR DISEASES CONTAINING PEPTIDE” (Encuragen Inc., priority 2023, published 2024)
Where a name gives a salt, the structure may show the parent alone. Read-outs that look alike come from different tables or passages of the source.

Tested on: BALB/3T3 clone A31 cells
Test: cells
Assay type: cell-based
Details: for IC50: Mus musculus, light or radiation study, BALB/3T3 clone A31 cells, neutral red
Method: To evaluate the phototoxicity of (PEG)-BHD1028, the potential phototoxicity of (PEG)-BHD1028 was measured in the BALB/3T3 clone A31 cells after UV exposure. The test substance and the positive control group (chlorpromazine hydrochloride; CPZ) were dissolved in a Hank's Balanced Salt Solution (HBSS) and then diluted with a Hank's Balanced Salt Solution (HBSS). The cells were trypsinized and counted. Thereafter, 1×10^4 cells per well were seeded in a 96-well plate and cultured for approximately 24 hours before treating the test samples. One hour after the sample treatment, the plate was irradiated with a UV irradiation system (UVA, 365 nm). After UV irradiation, the plate was incubated for 24 hours. The cell viability of the cultured cells was confirmed by measuring the absorbance at 540 nm using the neutral red staining method.

## CN(C)CCCN1c2ccccc2Sc2ccc(Cl)cc21 [CPZ, chlorpromazine hydrochloride, reference compound]
  phototoxicity classification by PIF and MPE: positive results
UVA 365 nm irradiation, read-out: IC50 UV (+Irr)
  IC50: 1.26 µg/mL
Without UV irradiation, read-out: IC50 UV (−Irr)
  IC50: 37.5 µg/mL
mouse, 24 h
  MPE (mean photo effect): 0.489
  PIF (photo irradiation factor): 29.668
